{"source": "patent US8173570B2", "about": "“Hydroconversion processes employing multi-metallic catalysts and method for making thereof” (Chevron U.S.A. Inc., priority 2007, dated 2012)", "origin": "cited, not measured here", "system": "rats", "conditions": "acute toxicity, as single oral dose to rats (definition b56-b57)"}
{"smiles": "O=CC(=O)O", "note": "[glyoxylic]", "values": [{"measurement": "LD50", "result": 3000, "unit": "mg/kg"}]}
